Measured values reported in patent US9603852B2, “Treatment of obesity and pulmonary arterial hypertension” (ALBERT EINSTEIN COLLEGE OF MEDICINE, INC., priority 2013, dated 2017).

Experiments:
C57BL6/J mice [1] = test: High fat diet induced body weight gain, food and water intake in mice; format: in vivo; settings: WT C57BL6 mice on HFD, 0.2 mM in drinking water
Description: CD and HFD were purchased from Purina LabDiet (Framingham, Mass.), and Research Diets (New Brunswick, N.J.), respectively. PGT global knockout (KO) mice were fed with HFD at 5-6 weeks of age. Simultaneously, WT-CD, WT-HFD, and PGTKO-HFD mice were treated with vehicle (0.4% DMSO+0.4% cremophore) or 0.2 mM Compound 146 from Table 1. To prepare Compound 146 solution, Compound 146 was dissolved in 100% DMSO at a concentration of 50 mM. Two mL of either DMSO or 50 mM Compound 146 were transferred into 500 mL drinking water; 2 mL cremophore were added into the mixture. The mixture was homogenous. Mice were housed individually and fed with CD or HFD, and water (with or without Compound 146) ad libitum. Food and water intakes and body weight were recorded every other day.

C57BL6/J mice [2] = test: Glucose tolerance test in HFD-fed mice; format: in vivo; settings: mice on HFD, 0.2 mM in drinking water for 67 days; glucose 2 g/kg i.p. after 12 h fast
Description: Glucose intolerance is often associated with obesity and HFD causes glucose intolerance. Mice were fasted for 12 hours. Glucose was injected intraperitoneally (20% glucose in saline, 2 g/kg body weight), and plasma glucose levels were measured at various time points by tail cut.

Sprague-Dawley rats [3] = test: Tolerability with twice daily injections in the naive rodent; format: in vivo; settings: 7 days
Description: In the first arm of the project, the tolerability of compounds was assessed with twice daily (b.i.d) injections in the naive rodent. Following one week of acclimatization to the UNM housing environments, rats at this time weighing approximately 200-225 g were randomly assigned to either receive a 50 mg/kg injection b.i.d. of Compound 146 (n=4) or an equivalent weight-based volume of vehicle (Cremophor-NMP) b.i.d. (n=4). Rats received test article or saline for a total of 7 consecutive days. Blood draws were conducted immediately before the 2nd day of injections, before the 4th day, before the 6th day, and at sacrifice. Body weights were obtained at the same times as the blood draws. On the 7th day, blood from both cohorts was collected via cardiac puncture while under anesthesia. Lungs, heart, liver and kidney were collected and snap frozen in liquid nitrogen for post-mortem bioassays.

Sprague-Dawley rats [4] = test: Rat monocrotaline (MCT) model of pulmonary arterial hypertension; format: in vivo; settings: for Deaths/Total N: 21 days
Description: Monocrotaline (MCT) (Sigma-Aldrich) was formulated by standardized procedures, by first dissolving in an acidic solution (HCl), diluting with distilled H2O, then raising the pH to physiological levels (7.35-7.45) with NaOH. MCT (60 mg/kg) or a volume-matched saline solution was injected intraperitoneally once at the beginning of the study. Body weights were collected on day 0, 5, 7, 11, 14, 18, and 21.
MCT and saline-injected rats (Day 1) were equally and randomly assigned to receive either vehicle (Cremophor-NMP), low dose Compound 146 or high dose Compound 146 via subcutaneous injections (Days 1-21). Injections were administered subcutaneously at 12 hour intervals throughout the study (actual range was 10-14 h).
After 21 days of twice daily subq injections of either vehicle or two concentrations of Compound 146, rats were anesthetized (1.5-2.5% isoflurane; […]), shaved and positioned in dorsal recumbence. Anesthesia was maintained at an appropriate depth, with a target heart rate of ˜350 bpm to ensure minimal cardio-depressant effects during collection of RVSP.
Upon absent deep pain reflex, a thoracotomy was performed to reveal the right ventricle and a fluid-filled catheter was inserted beyond the right ventricular free wall to permit recording of right ventricular hemodynamics (ADI Instruments). A digital trace of 10-30 seconds was obtained from which to derive right ventricular diastolic, mean, and systolic pressures, along with heart rate and related hemodynamic measures. Blood was then drawn via cardiac puncture and centrifuged to obtain EDTA plasma. Hearts were removed and the right ventricle dissected free from the septal wall. Each piece was weighed and reported as RV/LV+S. Tissues (plasma, heart, and lung) were excised and frozen in liquid nitrogen for later biochemical analysis. Additionally, kidneys and liver were snap frozen and stored for subsequent analysis.
Animals were examined twice per day (morning and evening) on each day of the study. Examinations focused on (1) identifying dead, weak, or moribund animals, and (2) documenting the onset and progression of any abnormal clinical signs, especially dermal lesions. Animals found dead were necropsied as soon as possible; for those subjects RV/LVS weight ratios were obtained, but no other parameters were collected.
All data were analyzed by a one-way ANOVA with Newman-Keuls post-hoc multiple comparison test. Probability values less than 0.05 were accepted as significant. Normality of distribution was assumed but for all data sets. All data were analyzed with GraphPad Prism v5.02.

rat PGT = molecular target: T1, rat PGT (Rattus norvegicus, UniProt Q00910); settings: cited from earlier work
T1 construct: expressed in transfected cells

O=C(NCCOCCOCCNc1nc(Nc2ccc(C(=O)NCc3ccc(F)cc3)cc2)nc(Nc2ccc(O)c(C(=O)O)c2)n1)c1ccccc1 [Compound 146]
HFD induced body weight gain (C57BL6/J mice [1]): blunted HFD induced weight gain
HFD induced glucose intolerance (glucose tolerance test) (C57BL6/J mice [2]): improved HFD induced glucose intolerance
cutaneous lesion diameter close to injection sites (Sprague-Dawley rats [3]; 2 rats of the 50 mg/kg b.i.d. group that did not gain weight): 1.5-2.0 cm
body weight growth (tolerability) (Sprague-Dawley rats [3]; naive rats, 50 mg/kg b.i.d. injection in NMP and Cremophor): heterogeneous failure to thrive
RV pressures, MCT+Vehicle versus MCT+Compound 146 by ANOVA (Sprague-Dawley rats [4]; 15 or 50 mg/kg b.i.d.): not statistically different
RV pulse pressure, MCT+Vehicle versus MCT+Compound 146 by ANOVA (Sprague-Dawley rats [4]; 15 or 50 mg/kg b.i.d.): statistically different
Net RV weight increase by MCT (Sprague-Dawley rats [4]; MCT rats): effect blunted
Deaths/Total N (Sprague-Dawley rats [4]; MCT rats, 15 mg/kg b.i.d. s.c.): 0/8
Deaths/Total N (Sprague-Dawley rats [4]; MCT rats, 50 mg/kg b.i.d. s.c.): 0/8
MCT induced increase in total lung weight (Sprague-Dawley rats [4]; MCT rats, both doses): inhibited
RV hypertrophic response (Sprague-Dawley rats [4]; MCT rats, both doses): significant inhibition
RV/LVS ratio (Fulton Index), mean (Sprague-Dawley rats [4]; MCT rats, high dose 50 mg/kg b.i.d.): 0.47
right lobe dry weight / increase in structural components of the lung (Sprague-Dawley rats [4]; MCT rats, lobe dried for 5 days): abrogated this remodeling
RV/LVS ratio (Fulton Index), mean (Sprague-Dawley rats [4]; MCT rats, low dose 15 mg/kg b.i.d.): 0.41
Deaths/Total N (Sprague-Dawley rats [4]; Saline-injected rats, 50 mg/kg b.i.d. s.c.): 0/5
RV pulse pressure, MCT effect compared to control rats (Sprague-Dawley rats [4]; either dose (15 or 50 mg/kg b.i.d.)): MCT induced no significant effect compared to control rats
RV systolic and mean pressures, MCT effect compared to control rats (Sprague-Dawley rats [4]; either dose (15 or 50 mg/kg b.i.d.), ANOVA): MCT induced no significant effect compared to control rats
lethalities (Sprague-Dawley rats [4]; groups receiving any dose): no lethalities
RV pressures, MCT-vehicle compared to MCT-Compound 146, restricted analysis (Sprague-Dawley rats [4]; one-tailed unpaired Student's t-test, P=0.046 low dose and 0.002 high dose): significant reduction
Inh (% of Ctl) 0.01 μM (rat PGT; 0.01 μM compound, second part of Table 1): 28.5 % of Ctl
Inh (% of Ctl) 0.05 μM (rat PGT; 0.05 μM compound, second part of Table 1): 59.8 % of Ctl
Inh (% of Ctl) 0.1 μM (rat PGT; 0.1 μM compound, second part of Table 1 (Cpd 130-151)): 70.4 % of Ctl
